According to EP2433624B1, “Use of buparvaquone for controlling mites parasitising honeybees” (Bimeda International Pharmaceuticals Limited, priority 2010, dated 2012):
Several values for one entry are separate records, joined by “and”; a condition that tells them apart may be missing. Equal values may be shown once. Read-outs that look alike come from different tables or passages of the source.

What was measured:
honeybees [1] = assay: Survival of bees sprayed with aqueous solutions of BPQ; format: in vivo, Apis mellifera; conditions: sprayed as an aqueous solution
Description: (§1) Example 7 - Toxicity of BPQ B to Varroa mites on honeybees when sprayed with an aqueous solution of the active ingredient
(§2) A total of 20 newly emerged Varroa infested bees were placed in hoarding cages. The cages were prepared as described in Section 1.0, except that the air vents were reduced in size using parafilm to prevent the Varroa mites escaping during the test period. The mean(±se) number of mites per 20 bees was estimated prior to commencement and an additional 10 mites per cage were added. Mites were collected and introduced as described above. The treatment solution was made by dissolving BPQ B in solvent, followed by two aqueous serial dilutions producing a concentration of 500µg/mL and 5µg/mL. From the latter, further serial dilutions were carried in water producing the following concentrations: • 0.5µg/mL. (C1-C3) • 0.05µg/mL. (D1-D3) • 0.005µg/mL. (E1-E3) • 0.0005µg/mL. (F1-F3) • 0.00005µg/mL (G1-G3)
(§3) Three replicates were established at each concentration plus a control group which were sprayed with water only. All test groups were fed 10mL of 1:1 sucrose:water solution and placed in the incubator at 32°C and monitored on a daily basis for the number of mites and number of bees knocked down. At the end of five day treatment period, the percentage efficacy of the treatment was estimated by treating bees in all cages with Apistan. % efficacy = mites knocked from treatment/total mites (treatment+Apistan)*100 [formula]

honeybees [2] = assay: Bee survival in the test with BPQ B fed in sucrose solution; format: in vivo, Apis mellifera
Description: (§4) Example 6 - Toxicity of BPQ B to Varroa mites on honeybees when fed treated sucrose solution
(§5) A total of 20 newly emerged Varroa infested bees were placed in hoarding cages. The cages were prepared as described in Section 1.0, except that the air vents were reduced in size using parafilm to prevent the Varroa mites escaping during the test period. The mean(±se) number of mites per 20 bees was estimated prior to commencement of the experiment and an additional 5 mites per cage were added. (mean±se = 10.6±0.33). This was carried out by collecting adult female mite from drone pupae, placing them in an eppendorf tube and then releasing them into the cages.
(§6) The treatment solution was made by dissolving BPQ B in solvent, followed by two aqueous serial dilutions producing a concentration of 500µg/mL and 5 µg/mL. From the latter, further serial dilutions were carried with sucrose solution producing the following concentrations: • 0.5µg/mL. (C1-C3) • 0.05µg/mL. (D1-D3) • 0.005µg/mL. (E1-E3) • 0.0005µg/mL. (F1-F3) • 0.00005µg/mL (G1-G3)
Three replicates were established at each concentration plus a control group which were only fed sugar syrup. All cages were placed in the incubator at 32°C and monitored on a daily basis for the number of mites and number of bees knocked down. […]

honeybee larvae = assay: Toxicity of BPQ B to honeybee larvae when fed treated syrup; format: in vivo, Apis mellifera; conditions: for Sealed cells / Young bees emerged: 40 cells
From the text: (§7) To measure the effect of treatment on developing larvae when fed syrup treated with BPQ powder, BPQ B, dissolved in the solvent (N-methyl pyrollidone) and diluted in an aqueous solution.
(§8) Apidae boxes were used to raise young queens and when virgin queens started to lay an area 6cm x 3cm were marked and missing cells were noted. The miniature colony was fed treated syrup, which was made by dissolving BPQ B powder in solvent, followed by serial dilutions using a sucrose solution (2 parts sugar: 1 part water). The concentrations administered are given below. Two replicates were carried out for the product, while 1 colony (apidae) was used for each of the solvent concentrations.

[3] = as above; format: in vivo, Apis mellifera; conditions: honeybee, in vivo, po, read-out: % Emergence
From the text: as §7, §8

Varroa mites [4] = assay: Efficacy of BPQ B against Varroa mites on honeybees sprayed with an aqueous solution; format: in vivo; conditions: sprayed as an aqueous solution, preliminary
Description: as §1
To estimate the percentage efficacy of BPQ B at different concentrations when sprayed as an aqueous solution onto adult bees
as §2, §3

Varroa mites [5] = assay: Efficacy of BPQ B against Varroa mites on honeybees fed treated sucrose solution; format: in vivo
Description: as §4
To estimate the percentage efficacy of BPQ at different concentrations in sucrose solution
as §5, §6
Three replicates were established at each concentration plus a control group which were only fed sugar syrup. All cages were placed in the incubator at 32°C and monitored on a daily basis for the number of mites and number of bees knocked down. At the end of five day treatment period, the percentage efficacy of the treatment was estimated by treating bees in all cages with Apistan (Trade Mark of Vita (Europe) Ltd. Apistan contains fluvalinate which is a synthetic pyrethroid. % efficacy = mites knocked from treatment/total mites (treatment+Apistan)*100 [formula]

[6] = 0.00005µg/mL (g1) in sucrose fed to colony
[7] = 0.0005µg/mL (f1-f2) in sucrose fed to colony
[8] = 0.005µg/mL (e1-e2) in sucrose fed to colony
[9] = 0.05µg/mL (d1-d2) in sucrose fed to colony
[10] = 0.5µg/mL (c1-c2) in sucrose fed to colony
[11] = 0.00005µg/mL (g1-g3) in sucrose solution fed to 20 infested bees per cage

CC(C)(C)[C@H]1CC[C@H](CC2=C(O)C(=O)c3ccccc3C2=O)CC1 [BPQ B, buparvaquone]
toxicity to bees (honeybees [1]): very low
bee survival (honeybees [2]; fed in a sucrose solution, day 5): no negative effects
toxicity for bees (honeybees [2]; powder dissolved in NMP, diluted in water then sugar solution, tested over 5 days, any concentration): No toxicity
Sealed cells (honeybee larvae; [6]): 30
Young bees emerged (honeybee larvae; [6]): 30
% Emergence (honeybee larvae; [7]): 87.5%
Sealed cells (honeybee larvae; [7]): 32 and 30
Young bees emerged (honeybee larvae; [7]): 26 and 28
% Emergence (honeybee larvae; [8]): 86.5%
Sealed cells (honeybee larvae; [8]): 31 and 37
Young bees emerged (honeybee larvae; [8]): 28 and 32
% Emergence (honeybee larvae; [9]): 69.7%
Sealed cells (honeybee larvae; [9]): 30 and 29
Young bees emerged (honeybee larvae; [9]): 27 and 23
% Emergence (honeybee larvae; [10]): 93.9%
Sealed cells (honeybee larvae; [10]): 32 and 33
Young bees emerged (honeybee larvae; [10]): 30 and 31
toxicity for bee larvae (honeybee larvae; powder dissolved in NMP, diluted in water then sugar solution, any concentration): No toxicity
survival [3, 6]: 96.8%
survival [3, 7]: 70.3%
survival [3, 8]: 82.4%
survival [3, 9]: 81.8%
survival [3, 10]: 85.7%
mean minimum efficacy (Varroa mites [4]; treatment d (0.05µg/mL)): 28.4%
mean maximum efficacy (Varroa mites [4]; treatment g (0.00005µg/mL)): 46.2%
percentage efficacy against the Varroa mite (Varroa mites [4]): low
daily Varroa mite drop down, Day 4 (Varroa mites [5]; [11]): 0
daily Varroa mite drop down, Day 6 (Varroa mites [5]; [11]): 0
daily Varroa mite drop down, Day 2 (Varroa mites [5]; 0.0005µg/mL (f1-f3) in sucrose solution fed to 20 infested bees per cage): 7 and 9
effective in Varroa knockdown (Varroa mites [5]; 0.0005µg/mL, fed in sugar solution): > 80%
daily Varroa mite drop down, Day 5 (Varroa mites [5]; 0.05µg/mL (d1-d3) in sucrose solution fed to 20 infested bees per cage): 1
daily Varroa mite drop down, Day 6 (Varroa mites [5]; 0.5µg/mL (c1-c3) in sucrose solution fed to 20 infested bees per cage): 1 and 2
maximum efficacy (Varroa mites [5]; fed in a sucrose solution, treatment f (0.0005µg/mL), 5 day treatment): approximately 82%
minimum efficacy (Varroa mites [5]; fed in a sucrose solution, treatment g (0.00005µg/mL), 5 day treatment): 43.8%
